Test results as given in patent US20040229873A1, “Treatment of neurodegenerative conditions” (BTG International Limited, priority 2003, published 2004).

Tests used:
[1] = system: patients suffering from MS; assay: Case studies of MS patients treated with Lamotrigine, compared with matching patients; type: in vivo, human
Excerpt: The average maintenance dose of Lamotrigine in these conditions is 400 mgs per day, but the initial dose or the rate of escalation may cause several side effects.
In the present study, the inventors followed the clinician inventor's clinical practice, which adopted two strategies that had varied from the manufacturer's recommendations. Firstly, a very slow titration process starting with 25 mgs per day increasing the dose gradually (often over several weeks) to avoid adverse events. Secondly, a maintenance dose with mean of 600 mgs per day was applied. Using these two strategies, the inventors observed improvement in the clinical activity of MS and also stabilisation of the disease process. The beneficial effects are illustrated in the following two case studies compared with matching patients who had not been treated with Lamotrigine.
The first treated patient was a person. […] They were referred to the clinician inventor in 1998, and their clinically active disease at that time represented a valid indication for treatment with diseases modifying therapy (β-interferon or Copaxone). However, the therapy could not be started because of financial constraints that were then imposed by their Health Authority. They also complained of sharp pain affecting the legs, which was resistant to several types of analgesia and also resistant to tricyclic antidepressants. Accordingly, treatment was started with Lamotrigine to treat their pain.
The initial dose was 25 mgs per day, which was escalated gradually as outlined above. Their Expanded Disability Status Scale at that time was 2.5. Their painful symptoms improved following Lamotrigine therapy. They also noticed improvement in their other MS-related symptoms, such as muscle spasticity in the legs and daytime fatigue. […] Their EDSS score remained stable at 2.5. Such improvement seemed to be related to Lamotrigine therapy because they had received no immunosuppressive or steroid therapy during the past four years.
A second of Lamotrigine-treated patient was a person, who was diagnosed with relapsing remitting MS five years ago. They also had idiopathic generalised epilepsy since childhood, which was treated with sodium valproate. In the first two years following the diagnosis of MS, they had three clinical relapses. Their seizures also deteriorated and because of this, their anti-epileptic therapy was changed from sodium valproate to Lamotrigine. This drug was introduced at a low dose, and was escalated cautiously as outlined above. Their EDSS score at the beginning of treatment with Lamotrigine was 1.5. […] This improvement seemed to be related to Lamotrigine therapy since they had received no treatment with steroids or immunosuppressive drugs.

[2] = system: multiple sclerosis patients; settings: cited from earlier work; for treatment of symptoms of MS / clinical positive and negative symptoms of MS: Sakurai and Kanazawa 1999; for clinical positive and negative symptoms of MS: low doses, lidocaine by iv infusion
[3] = seven MS patients, slow titration from 25 mgs per day, maintenance dose with mean of 600 mgs per day

CN(C)CCC=C1c2ccccc2CCc2ccccc21 [Amitriptyline]
clinical relapses ([1]; Example 1b control, person, active relapsing remitting MS): continued to have clinical relapses on a yearly basis
painful symptoms ([1]; Example 1b control, person, active relapsing remitting MS, intractable pain): improved

Nc1nnc(-c2cccc(Cl)c2Cl)c(N)n1 [Lamotrigine, 3,5-diamino-6-(2,3-dichlorophenyl)-1,2,4-triazine]
other MS-related symptoms, such as muscle spasticity in the legs and daytime fatigue ([1]; Example 1a, person): improvement
clinical relapses ([1]; Example 1a, person, relapsing remitting MS, average of one severe relapse per year before, Lamotrigine from 25 mgs per day escalated gradually): no clinical relapses since 1998
painful symptoms ([1]; Example 1a, person, sharp pain affecting the legs): improved
EDSS score ([1]; Example 1a, person, remained stable under Lamotrigine (2.5 at start)): 2.5
clinical relapses ([1]; Example 2a, person, relapsing remitting MS, three relapses in first two years before Lamotrigine): no clinical relapses
EDSS score ([1]; Example 2a, person, remained stable under Lamotrigine (1.5 at start)): 1.5
MS activity ([1]; Examples 3-7, five other patients treated with Lamotrigine): clinical improvement
clinical activity of MS [1, 3]: improvement
disease process [1, 3]: stabilisation

NC(=O)N1c2ccccc2C=Cc2ccccc21 [carbamazepine]
treatment of symptoms of MS [2]: without appropriate success
disability in multiple sclerosis patients ([2]; even at relatively low doses, Ramsaransing et al (2000)): seriously enhance disability

CCN(CC)CC(=O)Nc1c(C)cccc1C [lidocaine]
clinical positive and negative symptoms of MS [2]: generally improve clinical positive symptoms rather than worsening negative symptoms

Cc1cccc(C)c1OCC(C)N (stereo not shown) [mexiletine]
clinical positive and negative symptoms of MS [2]: generally improve clinical positive symptoms rather than worsening negative symptoms

O=C1NC(=O)C(c2ccccc2)(c2ccccc2)N1 [phenytoin]
treatment of symptoms of MS [2]: without appropriate success
